≈ marks a conversion by molar mass, not a printed value.
Experiments:
[1] = pH 9
[2] = in HPBCD (10%); Fuchs et al. 2014; cited from earlier work

O=C1CN(/N=C/c2ccc(-c3ccc([N+](=O)[O-])cc3)o2)C(O)=N1 [Dantrolen-Natrium]
Löslichkeit [1]: bemerkenswerte Steigerung der Löslichkeit
solubility thermodynamic at 24 h (physchem; 25% hpbcd in deionized water, Gelöstes Dantrolen-Natrium): 15.6 mg/mL (≈ 49.6 mM)
solubility thermodynamic at 24 h (physchem; 25% hpbcd in deionized water, pH 9, Gelöstes Dantrolen-Natrium): 16 mg/mL (≈ 50.9 mM)
solubility thermodynamic at 24 h (physchem; 25% hpbcd, 1% tris, water, pH 9, Gelöstes Dantrolen-Natrium): 14.4 mg/mL (≈ 45.8 mM)
solubility thermodynamic at 24 h (physchem; water, 25% hpbcd, 2% glycerol, pH 9, organic solvent or mixture, Gelöstes Dantrolen-Natrium): 9.5 mg/mL (≈ 30.2 mM)
solubility thermodynamic at 24 h (physchem; water, 25% hpbcd, arginine, pH 9, Gelöstes Dantrolen-Natrium): 8.5 mg/mL (≈ 27 mM)
solubility thermodynamic at 24 h (physchem; water, 25% hpbcd, edta, pH 9, Gelöstes Dantrolen-Natrium): 3.6 mg/mL (≈ 11.5 mM)
solubility thermodynamic at 24 h (physchem; water, 25% hpbcd, lysine, pH 9, Gelöstes Dantrolen-Natrium): 15.7 mg/mL (≈ 50 mM)
Konzentration des gelösten Dantrolens in Lösung [2]: 0,137 mg/ml

From patent publication EP3360539A1, “PHARMACEUTICAL FORMULATION” (SapioTec GmbH, priority 2017, dated 2018)
